Common to all, as to assay: Post-emergence foliar-applied weed control, greenhouse (Example I)
The subject of one test is BRAPP. In kind it is in vivo. The source says:
(§1) Evaluation of Post-emergence Foliar-Applied Herbicidal Mixtures for Weed Control in Direct Seeded Rice
(§2) Seeds or nutlets of the desired test plant species were planted in a soil matrix prepared by mixing a loam or sandy loam soil (e.g., 28.6 percent silt, 18.8 percent clay, and 52.6 percent sand, with a pH of about 5.8 and an organic matter content of about 1.8 percent) and calcareous grit in an 80 to 20 ratio. The soil matrix was contained in plastic pots with a volume of 1 quart and a surface area of 83.6 square centimeters (cm^2). When required to ensure good germination and healthy plants, a fungicide treatment and/or other chemical or physical treatment was applied. The plants were grown for 8-22 days in a greenhouse with an approximate 14 h photoperiod which was maintained at about 29° C. during the day and 26° C. during the night. Nutrients (Peters Excel® 15-5-15 5-Ca 2-Mg and iron chelate) were applied in the irrigation solution as needed and water was added on a regular basis. Supplemental lighting was provided with overhead metal halide 1000-Watt lamps as necessary. The plants were employed for testing when they reached the first through fourth true leaf stage.
(§3) Treatments consisted of the acid or esters of 4-amino-3-chloro-5-fluoro-6-(4-chloro-2-fluoro-3-methoxy-phenyl)pyridine-2-carboxylic acid (Compound A), each formulated as an SC (suspension concentrate), and various herbicidal components alone and in combination. Forms of Compound A were applied on an acid equivalent basis.
(§4) Other herbicidal components were applied on an active ingredient basis and included 4-hydroxyphenyl pyruvate dioxygenase (HPPD)-inhibiting herbicides mesotrione formulated as Callisto®, sulcotrione formulated as Mikado®, pyrazolynate formulated as Sunbird® 10% GR, and benzobicyclon formulated as Benzobicyclon 3.5%.
(§5) Treatment requirements were calculated based upon the rates being tested, the concentration of active ingredient or acid equivalent in the formulation, and a 12 mL application volume at a rate of 187 L/ha.
(§6) For treatments comprised of formulated compounds, measured amounts of compounds were placed individually in 25 mL glass vials and diluted in a volume of 1.25% (v/v) Agri-Dex® crop oil concentrated to obtain 12× stock solutions. […] Application solutions were prepared by adding an appropriate amount of each stock solution (e.g., 1 mL) and diluted to the appropriate final concentrations with the addition of 10 mL of an aqueous mixture of 1.25% (v/v) crop oil concentrate so that the final spray solutions contained 1.25+/−0.05% (v/v) crop oil concentrate.
(§7) For treatments comprised of formulated and technical compounds, weighed amounts of the technical materials were placed individually in 25 mL glass vials and dissolved in a volume of 97:3 v/v acetone/DMSO to obtain 12× stock solutions, and measured amounts of the formulated compounds were placed individually in 25 mL glass vials and diluted in a volume of 1.5% (v/v) crop oil concentrate or water to obtain 12× stock solutions. […] Application solutions were prepared by adding an appropriate amount of each stock solution (e.g., 1 mL) and diluted to the appropriate final concentrations with the addition of an appropriate amount of an aqueous mixture of 1.5% (v/v) crop oil concentrate so that the final spray solutions contained 1.25% (v/v) crop oil concentrate. As required, additional water and/or 97:3 v/v acetone/DMSO was added to individual application solutions so that the final acetone and DMSO concentrations of the application solutions being compared were 8.1% and 0.25%, respectively.
(§8) All stock solutions and applications solutions were visually inspected for compound compatibility prior to application. Spray solutions were applied to the plant material with an overhead Mandel track sprayer equipped with a 8002E nozzles calibrated to deliver 187 L/ha over an application area of 0.503 m^2 at a spray height of 18 to 20 inches (46 to 50 cm) above average plant canopy height. […]

In the next test the test system is ECHCO. Type of test: in vivo, Echinochloa colona (L.) Link.
Description: as §1, §2, §3, §4, §5, §6, §7, §8

Another test deals with IPOHE. In kind it is in vivo, Ipomoea hederacea Jacq.
Description: as §1, §2, §3, §4, §5, §6, §7, §8

Another test has as its system SCPJU. Type of test: in vivo, Schoenoplectus juncoides (Roxb.) Palla.
Description: as §1, §2, §3, §4, §5, §6, §7, §8

In a further test the test system is ECHCG. In kind it is in vivo, Echinochloa crusgalli (L.) Beauv.
Description: as §1, §2, §3, §4, §5, §6, §7, §8

The structures appear in SMILES notation. Several values for one entry are separate records, joined by “and”; a condition that tells them apart may be missing. Equal entries are not always repeated.
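For Visual Weed Control (%) - 20 DAA IPOHE Obs in this document: visual score 0 no injury to 100 complete kill versus untreated plants.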

For `COc1c(Cl)ccc(-c2nc(C(=O)O)c(Cl)c(N)c2F)c1F` [Compound A Acid, 4-amino-3-chloro-6-(4-chloro-2-fluoro-3-methoxyphenyl)-5-fluoropyridine-2-carboxylic acid], the “Visual Weed Control (%) - 20 DAA BRAPP Obs” value in the test on BRAPP (8.75 gae/ha) is 60% and 80%; in the test with BRAPP (17.5 gae/ha), 85%. Further, the “Visual Weed Control (%) - 20 DAA ECHCO Obs” value with ECHCO (4.38 gae/ha) was found to be 40%; with ECHCO (8.75 gae/ha) it was 60%; with ECHCO (17.5 gae/ha), 85%. Moreover, the “Visual Weed Control (%) - 22 DAA ECHCO Obs” value with ECHCO (5.3 gae/ha) and with ECHCO (10.6 gae/ha) was 65% in each case. The “Visual Control (%) - 20 DAA IPOHE Obs” value in the test on IPOHE (4.38 gae/ha) is on record as 10%; in the test on IPOHE (8.75 gae/ha), 35%; with IPOHE (17.5 gae/ha), 40%. Moreover, the “Visual Weed Control (%) - 21 DAA IPOHE Obs” value in the test on IPOHE (17.5 gae/ha) is on record as 25%; in the test on IPOHE (35 gae/ha), 48%. The results for the “Visual Weed Control (%) - 22 DAA SCPJU Obs” value with SCPJU (5.3 gae/ha) and in the test with SCPJU (10.6 gae/ha) were 60% and 75%, respectively. The “Visual Weed Control (%) - 20 DAA ECHCG Obs” value with ECHCG (4.38 gae/ha) was determined as 25%; in the test with ECHCG (8.75 gae/ha), 80%. In addition, the “Visual Weed Control (%) - 22 DAA ECHCG Obs” value in the test on ECHCG (5.3 gae/ha) was 65%; with ECHCG (10.6 gae/ha), 55%.
On to `COc1c(Cl)ccc(-c2nc(C(=O)OCc3ccccc3)c(Cl)c(N)c2F)c1F` [Compound A Benzyl Ester, benzyl ester of 4-amino-3-chloro-5-fluoro-6-(4-chloro-2-fluoro-3-methoxy-phenyl)pyridine-2-carboxylic acid], for which the “Visual Weed Control (%) - 20 DAA BRAPP Obs” value in the test on BRAPP (4.38 gae/ha) stood at 50%; in the test on BRAPP (8.75 gae/ha), 70%. Moreover, in the test with ECHCO (4.38 gae/ha), the “Visual Weed Control (%) - 20 DAA ECHCO Obs” value is given as 40%. Moreover, the “Visual Weed Control (%) - 22 DAA ECHCO Obs” value in the test on ECHCO (4.38 gae/ha) worked out at 30%; in the test with ECHCO (8.75 gae/ha), 55%. Besides, the entries for the “Visual Weed Control (%) - 20 DAA IPOHE Obs” value in the test on IPOHE (4.38 gae/ha), in the test with IPOHE (8.75 gae/ha) and in the test with IPOHE (17.5 gae/ha) were 10%, 10% and 20%, respectively. The results for the “Visual Weed Control (%) - 20 DAA SCPJU Obs” value in the test on SCPJU (4.38 gae/ha) and with SCPJU (8.75 gae/ha) were 30% and 60%, respectively. Besides, the “Visual Weed Control (%) - 20 DAA ECHCG Obs” value with ECHCG (4.38 gae/ha) was 40%. The “Visual Weed Control (%) - 22 DAA ECHCG Obs” value in the test with ECHCG (4.38 gae/ha) was found to be 40%; in the test on ECHCG (8 gae/ha), 35%; in the test with ECHCG (8.75 gae/ha) it was 60%; in the test on ECHCG (16 gae/ha), 65%; in the test with ECHCG (32 gae/ha), 80%.

Source of the values: patent US8841233B2, “Herbicidal compositions comprising 4-amino-3-chloro-5-fluoro-6-(4-chloro-2-fluoro-3-methoxyphenyl) pyridine-2-carboxylic acid or a derivative thereof and 4-hydroxyphenyl-pyruvate dioxygenase (HPPD) inhibitors” (Dow Agrosciences LLC, priority 2012, dated 2014).
